Measurements from patent US6623933B1 (priority 1999, dated 2003).
Where two headings read alike, the source gives them in different places.

Key:
NR1011/NR2A = NR1011/NR2A (Rattus norvegicus, UniProt P35439+Q00959); parameters: agonist Emax: dose or concentration left out as unconfirmed; settings: NR1011/NR2A
NR1111/NR2A [1] = target: T1, NR1111/NR2A (Rattus norvegicus, UniProt P35439+Q00959); test: NMDA-induced currents of NR1 splice variants, Xenopus oocytes, Example 4; format: cell-based; parameters: expressed in transfected cells; host or cells: Xenopus oocytes injected with NR1111 and NR2A mRNA; settings: NR1111/2A; for EC50: read-out: NMDA EC50
Protocol: Overnight cultures (500 ml) of transformed bacterial cells were prepared in order to grow sufficient quantities for maxiprep isolation of the plasmid CDNA. Maxipreps were done using a Sorvall RC-5B ultracentrifuge, Qiagen columns and cDNA was quantitated with spectrophotometry (OD260 and OD260/ OD280 ratio). The resulting plasmid cDNA was linearized by digestion with an appropriate restriction enzyme that cleaves distal to the cDNA insert (XhoI for NR2A or NotI for NR1100, NR1000, NR1111, NR1011, NR1101, NR1001). […] The samples were stored at −20° C. until use.
In vitro transcription was performed using the Ambion mMessage mMachine kit with T7 (NR1100, NR1000, NR1111, NR1011, NR1101, NR1001) RNA polymerase. The reaction was assembled on ice and allowed to incubate at 37° C. for 1-2 hr. The resulting mRNA was precipitated (reaction termination) using lithium chloride/5 mM EDTA solution and dissolved in RNase-free H2O. The concentration (OD260) and OD260/OD280 ratio (should be more than 1.5) was determined by spectrophotometer. The yield of mRNA was generally 15-30 μg. mRNA was stored at −80° C. until use.
Intracellular recording microelectrodes were fabricated from 100 μl borosilicate glass disposable micropipettes using a 2-step protocol on a standard horizontal Flaming-Brown micropipette puller.

NR1101/NR2A = NR1101/NR2A (Rattus norvegicus, UniProt P35439+Q00959); parameters: agonist Emax: dose or concentration left out as unconfirmed; settings: NR1101/NR2A
NR1/NR2D (NR1100) = NR1/NR2D (NR1100) (Rattus norvegicus, UniProt P35439+Q62645)
Penta-Mutant/NR2A = Penta-Mutant/NR2A (Rattus norvegicus, UniProt P35439+Q00959, K193A/K202A/R187A/R233A/R252A); test: NMDA-induced currents, Xenopus oocytes, Example 5; settings: read-out: NMDA EC50; Penta-mutant/NR2A
Protocol: Plasmids were linearized with appropriate restriction enzyme prior to in vitro transcription using the Message Machine kit (Ambion, Inc., Austin, Tex.).
Female, oocyte positive Xenopus laevis frogs were purchased from Xenopus I (Dexter, Mich). […] Oocytes were injected with 50 nL of RNA solutions using an electronic microinjector (Drummond Inc., Broomall, Pa.). […] The injected oocytes were used for experiments following 1-5 days of incubation in Barth's solution at 18-20° C.
The microelectrodes were fabricated with a programmed puller (Sutter Instrument Co., Calif.) from borosilicate glass capillaries and were filled with 3 M KCl solution. The resistance of filled microelectrodes was in the range of 1-3 MΩ. […] If not mentioned otherwise, during data acquisition oocytes were clamped at a holding potential of −70 mV. The membrane current was filtered at 500 Hz and sampled at 100 Hz. Drugs were applied using a gravity driven external perfusion system. The working ,volume of the recording chamber was 30 μl and the rate of the perfusion was 50 μl/sec. The drug application lasted 10 sec and was followed by a 60 sec wash. The data acquisition and external perfusion control were done using the SuperScopeII software package (GW Instruments, Mass.). All experiments were performed at room temperature (22-24° C.). Peak or steady-state current measurements were normalized and expressed as a fraction of the peak or steady-state control current measurements, which were performed before and after application of every single consentration of agonist or steroid. […] The data are presented as mean±S.E.M. with number of experiments in parentheses.

NR1/NR2B (NR1100) = NR1/NR2B (NR1100) (Rattus norvegicus, UniProt P35439+Q00960)
NR1000/NR2A = NR1000/NR2A (Rattus norvegicus, UniProt P35439+Q00959); parameters: agonist Emax: dose or concentration left out as unconfirmed; settings: NR1000/NR2A
NR1111/NR2A [2] = target: T1, NR1111/NR2A; parameters: agonist Emax: dose or concentration left out as unconfirmed; settings: NR1111/NR2A
[3] = target: T2, NR1100+NR2A NMDA receptor (Rattus norvegicus, UniProt P35439+Q00959); test: NMDA-induced currents, Xenopus oocytes, Example 1; format: cell-based; settings: NR1100+NR2A; for EC50: read-out: NMDA EC50
T2 construct: expressed in transfected cells; host or cells: Xenopus oocytes co-injected with NR1100 and NR2A cRNA
Text: Plasmids were obtained from the following individuals: Dr. Suzanne Zukin (Albert Einstein College of Medicine, Bronx, N.Y.), NR1100; Dr. Shigetada Nakanishi (Kyoto University Faculty of Medicine, Kyoto, Japan), NR2A; Dr. Stephen Heinemann (Salk Institute, San Diego, Calif.), GluR1 (flop), GluR3 (flop), and GluR6. Plasmids were linearized with BamH1 (NR1100), XhoI (NR2A, GluR1, GluR3) or XbaI (GluR6) prior to in vitro transcription with T3 (GluR1, GluR3, GluR6) or T7 (NR1100, NR2A) RNA polymerase using the Message Machine kit (Ambion, Austin, Tex.). […] RNA solutions (50-70 nl) were injected into oocytes for delivery of NR1100 (5 ng), NR1100:NR2A (1:10 ng), GluR1 (5 ng). GluR3 (5 ng), or GluR6 (20 ng). Oocytes were incubated in ND96 at 18-20° C. for 3-7 days prior to electrophysiological recording.
Steroid solutions were prepared as 70-100 mM frozen stocks in dimethyl sulfoxide (DMSO). The final DMSO concentration of all recording solutions was between 0.1% to 0.5% and was constant within an experiment.
Perfusion control and data acquisition were carried out using an automated oocyte electrophysiology workstation that was developed for the rapid collection of concentration-response data and real-time waveform analysis (Yaghoubi et al., Soc. Neurosci. Abstr. 20: 1109 (1995)). This system is implemented on a Macintosh IIci computer (Apple Computer, Cupertino, Calif.) equipped with MacA-DIOS II data acquisition and control hardware (GW Instruments, Somerville, Mass.). Drug application is controlled by the computer through a series of valves, using custom-written software based on the SuperScope II development environment, improving the efficiency and reproducibility of data collection. Experiments were carried out using an Axoclamp-2A voltage clamp amplifier (Axon Instruments, Foster City, Calif.) in two-electrode voltage clamp mode. Intracellular microelectrodes (1-3 MΩ) were filled with 3 M KCl. […] Membrane potential was clamped at −60 to −70 mV and stepped to −100 mV at the start of data acquisition unless otherwise stated. […] Current and voltage recordings were digitized at 100 Hz for analysis. GluR6 injected oocytes were treated for 10 min with 10 μg/ml concanavalin A to prevent fast desensitization.
Results are expressed as mean±S.E.M. Statistical comparisons were made using Student's t-test.

T2 sequence (Q00959 23-1464, other chains not shown): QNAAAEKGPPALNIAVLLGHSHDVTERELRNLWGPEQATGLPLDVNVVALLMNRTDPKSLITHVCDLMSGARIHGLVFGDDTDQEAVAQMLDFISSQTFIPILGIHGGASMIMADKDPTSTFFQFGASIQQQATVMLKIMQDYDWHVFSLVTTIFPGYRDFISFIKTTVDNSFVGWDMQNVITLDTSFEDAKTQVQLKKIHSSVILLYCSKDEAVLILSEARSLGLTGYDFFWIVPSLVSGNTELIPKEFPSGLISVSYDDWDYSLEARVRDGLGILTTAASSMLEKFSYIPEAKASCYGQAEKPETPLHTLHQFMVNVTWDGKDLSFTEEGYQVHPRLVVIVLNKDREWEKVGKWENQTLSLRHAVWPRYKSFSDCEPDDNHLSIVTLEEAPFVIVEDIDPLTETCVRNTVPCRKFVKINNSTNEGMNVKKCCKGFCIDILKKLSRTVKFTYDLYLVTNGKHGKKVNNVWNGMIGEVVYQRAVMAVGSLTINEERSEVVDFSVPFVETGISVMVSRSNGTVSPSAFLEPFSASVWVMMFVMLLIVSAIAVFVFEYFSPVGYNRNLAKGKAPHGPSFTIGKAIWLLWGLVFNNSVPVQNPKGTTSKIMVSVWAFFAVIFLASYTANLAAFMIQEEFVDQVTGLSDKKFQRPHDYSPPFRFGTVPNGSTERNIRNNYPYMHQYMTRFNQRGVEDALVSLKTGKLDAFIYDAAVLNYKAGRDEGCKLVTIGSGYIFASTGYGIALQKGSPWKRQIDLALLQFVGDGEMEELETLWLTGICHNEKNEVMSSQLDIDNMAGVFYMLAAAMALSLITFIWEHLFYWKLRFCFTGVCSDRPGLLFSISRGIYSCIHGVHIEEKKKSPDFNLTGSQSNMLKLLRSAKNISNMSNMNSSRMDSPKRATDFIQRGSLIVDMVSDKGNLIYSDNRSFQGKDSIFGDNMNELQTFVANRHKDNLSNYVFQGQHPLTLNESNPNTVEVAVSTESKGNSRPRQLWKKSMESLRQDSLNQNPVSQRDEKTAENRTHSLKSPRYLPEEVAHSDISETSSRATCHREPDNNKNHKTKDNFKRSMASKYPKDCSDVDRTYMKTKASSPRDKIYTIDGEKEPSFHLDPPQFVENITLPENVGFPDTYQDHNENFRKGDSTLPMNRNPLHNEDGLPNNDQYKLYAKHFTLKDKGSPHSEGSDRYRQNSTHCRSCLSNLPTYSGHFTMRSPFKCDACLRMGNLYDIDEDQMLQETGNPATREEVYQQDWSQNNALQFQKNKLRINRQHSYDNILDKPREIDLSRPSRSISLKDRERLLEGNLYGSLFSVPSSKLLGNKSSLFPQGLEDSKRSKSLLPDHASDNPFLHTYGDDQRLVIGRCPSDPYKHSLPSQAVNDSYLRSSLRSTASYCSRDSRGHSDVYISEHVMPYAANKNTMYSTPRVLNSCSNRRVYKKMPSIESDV
NR1101/NR2A, sequence (Q00959 23-1464, other chains not shown): as above
NR1011/NR2A, sequence (Q00959 23-1464, other chains not shown): as above

For CN[C@H](CC(=O)O)C(=O)O [NMDA, N-methyl-D-aspartate], the “agonist Emax” value (NR1011/NR2A; absence of PS) was 1.14 ± 0.02, the “agonist nHill” value (NR1011/NR2A; absence of PS) was 1.39 ± 0.07 and the “agonist nHill” value (NR1011/NR2A; presence of 100 mM PS) was 1.11 ± 0.12. The “agonist Emax” value (NR1011/NR2A; presence of PS) was “(1.68 ± 0.06)”, the “NMDA nH” value (NR1111/NR2A [1]; pH 7.5, +100 μM 3α5βS) was 1.50 and the “NMDA nH” value (NR1111/NR2A [1]; pH 7.5, +100 μM PS) was 2.02. For the same molecule, the “NMDA nH” value (NR1111/NR2A [1]; pH 7.5, control) was 1.67, the “NMDA nH” value (NR1111/NR2A [1]; pH 8.5, +100 μM PS) was 1.82 and the “NMDA nH” value (NR1111/NR2A [1]; pH 8.5, control) was 1.93. The EC50 (NR1111/NR2A [1]; pH 7.5, +100 μM 3α5βS) was 158 µM, the EC50 (NR1111/NR2A [1]; pH 7.5, +100 μM PS) was 89 µM and the EC50 (NR1111/NR2A [1]; pH 7.5, control, 10 μM glycine) was 103 µM. The EC50 (NR1111/NR2A [1]; pH 8.5, +100 μM PS) was 94 µM, the EC50 (NR1111/NR2A [1]; pH 8.5, control) was 110 µM and the “agonist Emax” value (NR1101/NR2A; absence of PS) was 1.33 ± 0.07. The “agonist nHill” value (NR1101/NR2A; absence of PS) was 1.31 ± 0.05, the “agonist nHill” value (NR1101/NR2A; presence of 100 mM PS) was 1.15 ± 0.12 and the “agonist Emax” value (NR1101/NR2A; presence of PS) was “(1.78 ± 0.06)”. The “agonist Emax” value (NR1/NR2D (NR1100); +100 μM PS) was 0.71, the “agonist nH” value (NR1/NR2D (NR1100); +100 μM PS) was 1.17 ± 0.01 and the “agonist Emax” value (NR1/NR2D (NR1100); no PS) was 1.02 ± 0.01. The “agonist nH” value (NR1/NR2D (NR1100); no PS) was 1.26 ± 0.09, the EC50 (NR1/NR2D (NR1100); read-out: agonist EC50, +100 μM PS, unit cell empty) was 6.2 µM and the EC50 (NR1/NR2D (NR1100); read-out: agonist EC50, no PS) was 8 µM. The EC50 (Penta-Mutant/NR2A) was 55 ± 3.4 µM, the “agonist Emax” value (NR1/NR2B (NR1100); +100 μM PS) was 1.47 and the “agonist nH” value (NR1/NR2B (NR1100); +100 μM PS) was 1.32 ± 0.11. For the same molecule, the “agonist Emax” value (NR1/NR2B (NR1100); no PS) was 1.00 ± 0.02, the “agonist nH” value (NR1/NR2B (NR1100); no PS) was 1.28 ± 0.08 and the EC50 (NR1/NR2B (NR1100); read-out: agonist EC50, +100 μM PS) was 12 µM. The “agonist Emax” value (NR1000/NR2A; absence of PS) was 1.20 ± 0.05, the “agonist nHill” value (NR1000/NR2A; absence of PS) was 1.31 ± 0.08 and the “agonist nHill” value (NR1000/NR2A; presence of 100 mM PS) was 1.18 ± 0.05. The “agonist Emax” value (NR1000/NR2A; presence of PS) was “(1.55 ± 0.04)”, the “agonist Emax” value (NR1111/NR2A [2]; absence of PS) was 1.34 ± 0.09 and the “agonist nHill” value (NR1111/NR2A [2]; absence of PS) was 1.49 ± 0.02. For the same molecule, the “agonist nHill” value (NR1111/NR2A [2]; presence of 100 mM PS) was 1.33 ± 0.22, the “agonist Emax” value (NR1111/NR2A [2]; presence of PS) was “(2.27 ± 0.07)” and the “NMDA Emax (normalized to 100 μM NMDA response)” value ([3]; +100 μM 3α5βS) was 0.35. For the same molecule, the “NMDA nH” value ([3]; +100 μM 3α5βS) was 1.66, the “NMDA Emax (normalized to 100 μM NMDA response)” value ([3]; +100 μM PS) was 3.21 and the “NMDA nH” value ([3]; +100 μM PS) was 1.54. For the same molecule, the “NMDA Emax (normalized to 100 μM NMDA response)” value ([3]; control) was 1.14, the “NMDA nH” value ([3]; control) was 1.43 and the EC50 ([3]; +100 μM 3α5βS) was 15 µM. For the same molecule, the EC50 ([3]; +100 μM PS) was 30 µM.
